The supplement of paper PMC5412046
Where a name gives a salt, the structure may show the parent alone.

Assays:
[1] = tested on: SB.mhdgc-1; assay: AC50 for growth inhibition (viability) (log10 M); higher = less potent; settings: SB.mhdgc-1 (hereditary c.1380delA CDH1 gastric cancer)
In short: (§1)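 Hereditary or sporadic patient-derived gastric cancer cells (500 cells in 5 μL medium per 1536 well) received 23 nL compound in DMSO by pintool. Dosing was 11 threefold dilutions starting at a final 46 μM. After 48 h, CellTiter-Glo was added for 30 min at room temperature and luminescence read on a ViewLux. Log half-maximal activity concentration came from a four-parameter fit of DMSO-normalised viability, keeping only high-quality curve classes.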

[2] = tested on: SB.msgc-1; assay: as above; settings: SB.msgc-1 (sporadic gastric cancer)
In short: as §1

Structure (SMILES)	AC50 for growth inhibition (log10 M) [1]	AC50 for growth inhibition (log10 M) [2]
C[C@]1(CO)CN(c2cc(C(=O)Nc3ccc4c(c3)-c3c(c(C(N)=O)nn3-c3ccc(F)cc3)CC4)c(Cl)cn2)C[C@@]1(C)CO [PF-184]	-5.43	-5.08
Cc1cc(C[S+](=O)([O-])c2ccccc2)cc(OCc2ccc(CN3CCC[C@@H]3CO)cc2)c1 [PF-543]	-4.78	-4.83
CN1CCN(c2cc(C(=O)Nc3ccc4c(c3)-c3c(c(C(N)=O)nn3-c3ccc(F)cc3)CC4)c(Cl)cn2)CC1 [PHA-408]	-5.88	-5.93
Oc1cccc(-c2nc(N3CCOCC3)c3oc4ncccc4c3n2)c1 [PI-103]	-6.12	-4.92
Cc1ccc([N+](=O)[O-])cc1[S+](=O)([O-])N(C)/N=C/c1cnc2ccc(Br)cn12 [PIK-75]	-8.03	-7.98
COC1=CC=C2/C3=N/CCN3\C(=N/C2=C1OC)NC(=O)C4=CC=CN=C4 [PIK-90]	-5.33	-4.98
CC1=C(C=CC=C1)N2\C(=N/C3=C(C(=CC=C3)C)C2=O)C[N]4N=CC5=C4N=CN=C5N [PIK-293]	-6.73	-7.08
CCn1nnc2c(N3CCOCC3)nc(-c3ccc(NC(=O)Nc4ccc(C(=O)N5CCN(C)CC5)cc4)cc3)nc21 [PKI-402]	-5.43	-5.88
Nc1ncnc2c1c(-c1cnc3[nH]ccc3c1)nn2C1CCCC1 [PP-121]	-5.78	-5.38
CC(C)n1nc(-c2cc3cc(O)ccc3[nH]2)c2c(N)ncnc21 [PP-242]	-6.93	-5.28
CCc1ccc(C(=O)Nc2cc(CN3CCN(C)CC3)cc(C(F)(F)F)c2)cc1C#Cc1cnc2ccnn2c1 [PRP003-013]	-5.13	-4.78
CCC(C)SSc1ncc[nH]1 (stereo not given) [PX-12]	-4.63	-4.58
Cc1[nH]c2ccccc2c1CCNCc1ccc(/C=C/C(=O)NO)cc1 [Panobinostat]	-6.08	-6.98
COc1ccc(Cc2nccc3cc(OC)c(OC)cc23)cc1OC [Papaverine hydrochloride]	-6.88	-4.73
ClC1=CC=C(CCCOC/2=N/NC(=O)C(=C2NCC3=CN=CC=C3)/Br)C=C1 [Parogrelil]	-5.13	-4.83
C=C1C(=O)O[C@@H]2[C@H]3O[C@]3(C)CC/C=C(\C)CC[C@@H]12 [Parthenolide]	-5.18	-4.83
CCOc1cc2ncc(C#N)c(Nc3ccc(F)c(Cl)c3)c2cc1NC(=O)/C=C/CN(C)C [Pelitinib]	-7.38	-7.43
NC/1=N/C(=O)C2=C([NH]C=C2CCC3=CC=C(C=C3)C(=O)N[C@@H](CCC(O)=O)C(O)=O)N1 [Pemetrexed disodium]	-6.33	-6.23
CC1=CC=C(C=C1)N(C\C2=N\CCN2)C3=CC=CC(=C3)O [Phentolamine mesilate]	-4.98	-4.68
O=C(CCc1ccc(O)cc1)c1c(O)cc(O)cc1O [Phloretin]	-7.33	-7.13
CCCCN1CCC(CNC(=O)c2c3n(c4ccccc24)CCCO3)CC1 [Piboserod hydrochloride]	-5.53	-5.53
COc1cc([C@@H]2c3cc4c(cc3[C@H](O)[C@H]3COC(=O)[C@@H]23)OCO4)cc(OC)c1OC [Picropodophyllin]	-6.48	-6.73
Nc1nccc(-c2ccc3noc(-c4ccc(Cl)cc4)c3c2)n1 [Pim 1 inhibitor 2]	-5.48	-5.03
O=C(NC[C@H](O)CO)c1ccncc1Nc1ccc(I)cc1F [Pimasertib]	-4.73	-6.38
CC[C@@H]1/C=C(\C)C[C@H](C)C[C@H](OC)[C@H]2O[C@@](O)(C(=O)C(=O)N3CCCC[C@H]3C(=O)O[C@H](/C(C)=C/[C@@H]3CC[C@H](Cl)[C@H](OC)C3)[C@H](C)[C@@H](O)CC1=O)[C@H](C)C[C@@H]2OC [Pimecrolimus]	-4.98	-4.93

Structure (SMILES)	AC50 for growth inhibition (log10 M) [1]	AC50 for growth inhibition (log10 M) [2]
COc1cccc2c1C(=O)c1c(O)c3c(c(O)c1C2=O)C[C@@](O)(C(=O)CO)C[C@@H]3O[C@H]1C[C@H](N)[C@H](O[C@H]2CCCCO2)[C@H](C)O1 [Pirarubicin]	-6.08	-5.68
CC(C)(C)c1[nH]cnc1/C=c1\[nH]c(=O)/c(=C/c2ccccc2)[nH]c1=O [Plinabulin]	-7.62	-6.07
Cc1cc(Nc2ncc3c(n2)N(C)C(=O)N(c2cc(NC(=O)c4cccc(C(F)(F)F)c4)ccc2C)C3)n(C)n1 [Pluripotin]	-5.23	-6.08
Cc1ccc(C(=O)Nc2ccc(CN3CCN(C)CC3)c(C(F)(F)F)c2)cc1C#Cc1cnc2cccnn12 [Ponatinib]	-5.78	-4.88
CCCCc1nc2cc(/C=C/C(=O)NO)ccc2n1CCN(CC)CC [Pracinostat]	-5.33	-6.88
C#CCC(Cc1cnc2nc(N)nc(N)c2n1)c1ccc(C(=O)N[C@@H](CCC(=O)O)C(=O)O)cc1 (stereo not given in full) [Pralatrexate]	-6.58	-7.28
CCc1nc(N)nc(N)c1-c1ccc(Cl)cc1 [Pyrimethamine]	-5.38	-5.48
O=C(CCCCCCC(=O)Nc1cccnc1)NO [Pyroxamide]	-5.53	-5.33
OC1=CC2=C(C(=C1)O)C(=O)\C(=C(/O2)C3=CC(=C(O)C=C3)O)O [Quercetine]	-5.13	-4.68
Cn1cc(CNCC2CCN(c3ncc(C(=O)NO)cn3)CC2)c2ccccc21 [Quisinostat hydrochloride]	-6.73	-7.23
COc1ccc(F)c(F)c1C(=O)c1cnc(NC2CCN([S+](C)(=O)[O-])CC2)nc1N [R-547]	-5.73	-6.03
CNC(=O)c1ccc(N2C(=S)N(c3ccc(C#N)c(C(F)(F)F)c3)C(=O)C23CCC3)cc1F [RD-162]	-5.08	-5.13
Cc1cc(Nc2cc(NC(=O)c3c(Cl)cccc3Cl)ccn2)nc(N)n1 [RO495]	-5.58	-6.38
Cc1cnc(NC(=O)Nc2cc(Br)c(C)cc2OC[C@@H]2CNCCO2)cn1 [Rabusertib]	-4.88	-5.88
CC(=O)SCC(Cc1ccccc1)C(=O)NCC(=O)OCc1ccccc1 (stereo not given) [Racecadotril]	-6.68	-6.23
O=C(c1ccc(OCCN2CCCCC2)cc1)c1c(-c2ccc(O)cc2)sc2cc(O)ccc12 [Raloxifene hydrochloride]	-6.88	-5.18
Cc1nc2ccc(CN(C)c3ccc(C(=O)N[C@@H](CCC(=O)O)C(=O)O)s3)cc2c(=O)[nH]1 [Raltitrexed]	-7.48	-7.28
CCOC(=O)[C@H](CCc1ccccc1)N[C@@H](C)C(=O)N1[C@H](C(=O)O)C[C@@H]2CCC[C@@H]21 [Ramipril]	-5.18	-4.73
CO[C@@H]1[C@@H](O)[C@H](O)[C@@H](n2c3c(Cl)cccc3c3c4c(c5c6cccc(Cl)c6[nH]c5c32)C(=O)NC4=O)O[C@H]1CO [Rebeccamycin]	-6.83	-6.43
CNC(=O)c1cc(Oc2ccc(NC(=O)Nc3ccc(Cl)c(C(F)(F)F)c3)c(F)c2)ccn1 [Regorafenib]	-4.78	-4.83
COC(=O)C1C2CC3c4[nH]c5cc(OC)ccc5c4CCN3CC2CC(OC(=O)c2cc(OC)c(OC)c(OC)c2)C1OC (stereo not given) [Reserpine]	-5.43	-5.43
C=CCNc1c(O)cc2c(O)c1C[C@@H](C)C[C@H](OC)[C@H](O)[C@@H](C)/C=C(/C)[C@H](OC(N)=O)[C@@H](OC)/C=C\C=C(\C)C(=O)N2 [Retaspimycin]	-6.88	-7.48
c1nc2c(NC3CCCCC3)nc(Nc3ccc(N4CCOCC4)cc3)nc2[nH]1 [Reversine]	-4.63	-4.73
CO[C@H]1/C=C/O[C@@]2(C)Oc3c(C)c(O)c4c(O)c(c(/C=N\N5CCN(C6CCCC6)CC5)c(O)c4c3C2=O)NC(=O)/C(C)=C\C=C\[C@H](C)[C@H](O)[C@@H](C)[C@@H](O)[C@@H](C)[C@H](OC(C)=O)[C@@H]1C [Rifapentine]	-7.38	-6.33
Cc1c(C(=O)NN2CCCCC2)nn(-c2ccc(Cl)cc2Cl)c1-c1ccc(Cl)cc1 [Rimonabant]	-4.78	-4.63
